Test system: Nitzschia inconspicua
Test: Cultivation of Nitzschia inconspicua in an open raceway pond at high silica loading, lipid content of harvested slurry
Format: cell-based
Procedure: Nitzschia inconspicua was cultivated at pH 9.6 with a silica loading of 10-11 mM in an open raceway pond for 20 days. Silica was added to the culture at a concentration of 1-3 mM each day to maintain the 10-11 mM silica loading as the algae grew and the batch volume increased. The silica loading was reduced to below 5 mM by diluting the culture without adding silica. The third day after reducing the silica loading, the loading was 2 mM. The algae slurry was harvested on the third day and analyzed for lipid content. The lipid content was 47% of the ash-free dry weight of the biomass. This is a substantial increase in lipid content compared to the typical 5-10% lipid content when the algae is grown in standard media with silica concentrations below 500 μM.

With `O=[Si]=O` [silica] the typical lipid content (algae grown in standard media with silica concentrations below 500 μM) was 5-10% and the lipid content (pH 9.6, silica loading 10-11 mM for 20 days, then reduced to below 5 mM, loading 2 mM at harvest on the third day) was 47 % of the ash-free dry weight of the biomass.

From patent US20240409880A1, “METHODS FOR INCREASING ALGAE PRODUCTIVITY USING HIGH SILICA CONCENTRATIONS” (Global Algae Technology, LLC, priority 2023, published 2024)
